Values after ≈ are worked out from the molar mass of the structure shown.

The record followed here is publication PMC10740580, “Benzothiazole-Phthalimide Hybrids as Anti-Breast Cancer and Antimicrobial Agents” (Antibiotics, 2023).

Assay [1] concerns Candida parapsilosis 22019. Description: Antifungal microdilution, C. parapsilosis ATCC 22019. It is filed as cell-based. As to conditions: microdilution CLSI M27-A3, 48 h, 37 °C, read-out: MIC C.p. 22019. The protocol:
In accordance with CLSI guidelines, compounds 3a–h were tested against a variety of fungal strains (Candida albicans 10231, Candida albicans 90028, Candida glabrata 15126, and Candida parapsilosis 22019) belonging to the ATCC collection. Amphotericin B was utilized as a reference drug. A similar trend of results, or even better than that obtained against bacteria, was assessed against fungal strains. […] Also, in this case, compound 3h emerged as the best of the series, with MICs of 16 μg/mL against Candida glabrata and Candida parapsilosis strains and 32 μg/mL against Candida albicans strains.
A microdilution technique described by the Clinical and Laboratory Standards Institute (CLSI, M27-A3) was used to assess the antifungal activity. The following fungal strains, belonging to the ATCC collection and available as freeze-dried discs, were used: C. albicans ATCC 10231, C. albicans ATCC 90028, C. glabrata ATCC 15126, and C. parapsilosis ATCC 22019. Stock solutions were prepared and preserved with purity as previously described for the antibacterial studies. Each yeast strain’s pre-cultures were made in Sabouraud broth (SAB) and allowed to grow until they stopped at 37 °C. By using a spectrophotometric technique (530 nm, range 0.12–0.15), the turbidity of the yeast stock suspension was calibrated to 0.5 McFarland Standard. Next, the standardized suspension was diluted first at 1:50 with SAB and then at 1:20 in the same medium to have […]. A total of 100 µL of inoculum was seeded into each well. As a control for growth, several wells containing only inoculated broth were prepared. The plates were incubated for 48 h at 37 °C, and the MIC values were calculated as the final well with no fungal growth. […] MIC values were observed based on the absence of fungal growth in the final well. The MICs were calculated by conducting the antifungal test three times in duplicate. As a control, amphotericin B was used.
On the technique in general: Broth dilution looks for growth in wells or tubes with falling amounts of substance.

Assay [2] deals with Pseudomonas aeruginosa 27853. Description: Broth microdilution, P. aeruginosa ATCC 27853. Format: cell-based. Particulars: 24 h, 37 °C. An excerpt: Compounds 3a–h were examined in accordance with the Clinical Laboratory Standards Institute (CLSI) recommendations, by means of the broth microdilution method, against gram-positive bacteria (Staphylococcus aureus 25923, Staphylococcus aureus 29213, Staphylococcus aureus 43300, Enterococcus faecalis 29212) and gram-negative bacteria (Escherichia coli 25922, Klebsiella pneumoniae 13883, Pseudomonas aeruginosa 27853) belonging to the ATCC collection, using levofloxacin as a reference drug. Table 3 lists the results, expressed as MIC (µg/mL). […] The lack of activity observed for compound 3d could be conceivably due to its poor solubility in the culture medium containing the inoculum.
Following the recommendations of the CLSI (Clinical and Laboratory Standards Institute, 2012), the broth microdilution method was used to determine the in vitro minimum inhibitory concentrations (MICs, µg/mL).. The concentration of the investigated compounds was set to its highest value to create stock solutions. Then, the stock solutions were diluted 1:10 with Cation-Adjusted Mueller Hinton Broth (Oxoid, Milan, Italy). After that, a series of concentrations from 512 µg/mL to […] were obtained in the wells by performing two-fold serial dilutions in the appropriate test medium. The diluent used to create the stock solution was 100% DMSO. We used the following bacterial strains from the ATCC collection that were available as freeze-dried discs: gram-positive strains such as S. aureus ATCC 25923, 29213, and 43300, and E. faecalis ATCC 29212, and gram-negative ones such as E. coli ATCC 25922, K. pneuomoniae ATCC 13883, and P. aeruginosa ATCC 27853. To preserve the purity of cultures and to allow their reproducibility, cryovials of all microbial strains were set up in the medium and stored at −80 °C. Mueller Hinton Broth (MHB) was used to prepare pre-cultures of each bacterial strain, which were then incubated for 3–5 h at 37 °C. In accordance with CLSI procedure M7-A9, the turbidity of the bacterial cell suspension was calibrated to 0.5 McFarland Standard using a spectrophotometric approach (OD625 nm 0.08–0.10). The standardized suspension was then further diluted (1:100) with MHB to reach 1–2 × 10^6 CFU/mL. A 200 µL aliquot of the final inoculum was inserted into each well. As a control for growth, several wells containing only inoculated broth were prepared. The plates were incubated at 37 °C for 24 h, and the MIC values were calculated as the lowest concentration of compounds at which there was no optically detectable bacteria growth. Each experiment was carried out in duplicate and repeated twice to determine the MICs. Levofloxacin served as the study’s standard reference antibiotic. Additionally, the antibacterial activity of DMSO alone (used as a diluent for the investigated compounds) was examined; therefore, volumes of this solvent with a concentration of less than 5% were utilized throughout the experimentation.

A word on the MIC: it is the smallest concentration in the dilution series that meets the test's criterion for growth inhibition. On to `O=C1c2ccccc2C(=O)N1c1nc2ccc(C(F)(F)F)cc2s1` [3c, 2-[6-Trifluoromethyl-1,3-benzothiazol-2-yl]-1H-isoindole-1,3(2H)-dione], for which the minimum inhibitory concentration (MIC) in assay [1] was found to be 64 µg/mL (≈ 184 µM); in assay [2], 128 µg/mL (≈ 367 µM).

As for `Cc1ccc2nc(N3C(=O)c4ccccc4C3=O)sc2c1` [3d, 2-[6-Methyl-1,3-benzothiazol-2-yl]-1H-isoindole-1,3(2H)-dione], the MIC in assay [1] and in assay [2] was more than 512 µg/mL throughout.

Consider `COc1ccc2nc(N3C(=O)c4ccccc4C3=O)sc2c1` [3e, 2-[6-Methoxy-1,3-benzothiazol-2-yl]-1H-isoindole-1,3(2H)-dione], for which the MIC in assay [1] is 32 µg/mL (≈ 103 µM); in assay [2], 64 µg/mL (≈ 206 µM).

With `O=C1c2ccccc2C(=O)N1c1nc2ccccc2s1` [3a, 2-(1,3-benzothiazol-2-yl)-1H-isoindole-1,3(2H)-dione], the MIC in assay [1] amounted to 32 µg/mL (≈ 114 µM); in assay [2] it was 64 µg/mL (≈ 228 µM).

Turning to `O=C1c2ccccc2C(=O)N1c1nc2ccc(Oc3ccccc3)cc2s1` [3h, 2-[6-Phenoxy-1,3-benzothiazol-2-yl]-1H-isoindole-1,3(2H)-dione], the MIC came to 16 µg/mL (≈ 43 µM) in assay [1] and 32 µg/mL (≈ 85.9 µM) in assay [2].

For `O=C1c2ccccc2C(=O)N1c1nc2ccc(F)cc2s1` [3b, 2-(6-Fluoro-1,3-benzothiazol-2-yl)-1H-isoindole-1,3(2H)-dione], the minimal inhibitory concentration (MIC) in assay [1] was determined as 32 µg/mL (≈ 107 µM); in assay [2], 64 µg/mL (≈ 215 µM).

As for `COc1cc2nc(N3C(=O)c4ccccc4C3=O)sc2cc1OC` [3f, 2-[5,6-Dimethoxy-1,3-benzothiazol-2-yl]-1H-isoindole-1,3(2H)-dione], the MIC was determined as 32 µg/mL (≈ 94 µM) in assay [1] and 64 µg/mL (≈ 188 µM) in assay [2].

Regarding `O=C1c2ccccc2C(=O)N1c1nc2ccc(O)cc2s1` [3g, 2-[6-Hydroxy-1,3-benzothiazol-2-yl]-1H-isoindole-1,3(2H)-dione], the MIC in assay [1] is 32 µg/mL (≈ 108 µM); in assay [2], 64 µg/mL (≈ 216 µM).
